Results taken from patent publication US6455540B1, “Methods of use of quinolone compounds against anaerobic pathogenic bacteria” (priority 1999, dated 2002).

Key:
Assay in all cases: Agar dilution MIC
[1] = system: Anaerobiospirillum thomasii; format: cell-based; conditions: 13 isolates; for MIC50 / MIC90: Anaerobiospirillum thomasii; for MIC50: read-out: Minimal Inhibitory Concentration 50% (MIC50); for MIC90: read-out: Minimal Inhibitory Concentration 90% (MIC90)
[2] = system: Anaerobiospirillum succiniciproducens; format: cell-based; conditions: 3 isolates; for MIC50: Anaerobiospirillum succiniciproducens, read-out: Minimal Inhibitory Concentration 50% (MIC50)
Bacteroides ureolyticus = format: cell-based; conditions: 17 isolates; for MIC90 / MIC50: Campylobacter ureolyticus; for MIC90: read-out: Minimal Inhibitory Concentration 90% (MIC90); for MIC50: read-out: Minimal Inhibitory Concentration 50% (MIC50)
Fusobacterium varium = format: cell-based; conditions: 17 isolates; for MIC50 / MIC90: Fusobacterium varium; for MIC50: read-out: Minimal Inhibitory Concentration 50% (MIC50); for MIC90: read-out: Minimal Inhibitory Concentration 90% (MIC90)
[3] = system: Fusobacterium spp. group 2; format: cell-based, Fusobacterium mortiferum, necrogenes, ulcerans; conditions: 12 isolates; for MIC50 / MIC90: Fusobacterium; for MIC50: read-out: Minimal Inhibitory Concentration 50% (MIC50); for MIC90: read-out: Minimal Inhibitory Concentration 90% (MIC90)
Porphyromonas macaccae = format: cell-based; conditions: 13 isolates; for MIC50 / MIC90: Porphyromonas; for MIC50: read-out: Minimal Inhibitory Concentration 50% (MIC50); for MIC90: read-out: Minimal Inhibitory Concentration 90% (MIC90)
Bacteroides tectum = format: cell-based; conditions: 22 isolates; for MIC90 / MIC50: Bacteroides pyogenes; for MIC90: read-out: Minimal Inhibitory Concentration 90% (MIC90); for MIC50: read-out: Minimal Inhibitory Concentration 50% (MIC50)
Bilophila wadsworthia = format: cell-based; conditions: 16 isolates, agar supplemented with pyruvate; for MIC90 / MIC50: Bilophila wadsworthia; for MIC90: read-out: Minimal Inhibitory Concentration 90% (MIC90); for MIC50: read-out: Minimal Inhibitory Concentration 50% (MIC50)
Clostridium inocuum = format: cell-based, Clostridium innocuum; conditions: Clostridium, 11 isolates; for MIC90: read-out: Minimal Inhibitory Concentration 90% (MIC90); for MIC50: read-out: Minimal Inhibitory Concentration 50% (MIC50)
[4] = system: Clostridium clostridioforme; format: cell-based; conditions: Clostridium, 11 isolates; for MIC90: read-out: Minimal Inhibitory Concentration 90% (MIC90); for MIC50: read-out: Minimal Inhibitory Concentration 50% (MIC50)
[5] = system: Peptostreptococcus asaccharolyticus; format: cell-based; conditions: Peptoniphilus asaccharolyticus, 11 isolates; for MIC50: read-out: Minimal Inhibitory Concentration 50% (MIC50); for MIC90: read-out: Minimal Inhibitory Concentration 90% (MIC90)
Clostridium ramosum = format: cell-based; conditions: 10 isolates; for MIC50 / MIC90: Thomasclavelia ramosa; for MIC50: read-out: Minimal Inhibitory Concentration 50% (MIC50); for MIC90: read-out: Minimal Inhibitory Concentration 90% (MIC90)
[6] = system: Peptostreptococcus magnus; format: cell-based; conditions: 13 isolates; for MIC50 / MIC90: Finegoldia magna; for MIC50: read-out: Minimal Inhibitory Concentration 50% (MIC50); for MIC90: read-out: Minimal Inhibitory Concentration 90% (MIC90)
[7] = system: Peptostreptococcus prevotii; format: cell-based; conditions: 9 isolates; for MIC50: Anaerococcus prevotii, read-out: Minimal Inhibitory Concentration 50% (MIC50)
[8] = system: Actinomyces odontolyticus; format: cell-based; conditions: Schaalia odontolytica, 10 isolates; for MIC90: read-out: Minimal Inhibitory Concentration 90% (MIC90); for MIC50: read-out: Minimal Inhibitory Concentration 50% (MIC50)
Prevotella bivia = format: cell-based; conditions: Prevotella bivia, 21 isolates; for MIC90: read-out: Minimal Inhibitory Concentration 90% (MIC90); for MIC50: read-out: Minimal Inhibitory Concentration 50% (MIC50)
Actinomyces israelii = format: cell-based; conditions: 6 isolates; for MIC50: Actinomyces israelii, read-out: Minimal Inhibitory Concentration 50% (MIC50)
[9] = system: Porphyromonas asaccharolyticus; format: cell-based, Porphyromonas asaccharolytica; conditions: Porphyromonas, 11 isolates; for MIC50: read-out: Minimal Inhibitory Concentration 50% (MIC50); for MIC90: read-out: Minimal Inhibitory Concentration 90% (MIC90)
Porphyromonas gingivalis = format: cell-based; conditions: 13 isolates; for MIC50 / MIC90: Porphyromonas gingivalis; for MIC50: read-out: Minimal Inhibitory Concentration 50% (MIC50); for MIC90: read-out: Minimal Inhibitory Concentration 90% (MIC90)
[10] = system: Fusobacterium spp group 1; format: cell-based; conditions: Fusobacterium, 19 isolates; for MIC50: GROUP1, read-out: Minimal Inhibitory Concentration 50% (MIC50); for MIC90: GROUP1, read-out: Minimal Inhibitory Concentration 90% (MIC90)
Fusobacterium russii = format: cell-based; conditions: Fusobacterium russii; for MIC50: read-out: Minimal Inhibitory Concentration 50% (MIC50); for MIC90: read-out: Minimal Inhibitory Concentration 90% (MIC90)
Porphyromonas spp. = format: cell-based, Porphyromonas cangingivalis, cansulci, circumdentaria, levii; conditions: 11 isolates; for MIC50 / MIC90: Porphyromonas; for MIC50: read-out: Minimal Inhibitory Concentration 50% (MIC50); for MIC90: read-out: Minimal Inhibitory Concentration 90% (MIC90)
Veillonella spp. = format: cell-based; conditions: Veillonella, 24 isolates; for MIC90: read-out: Minimal Inhibitory Concentration 90% (MIC90); for MIC50: read-out: Minimal Inhibitory Concentration 50% (MIC50)
Clostridium dfficile = format: cell-based, Clostridium difficile; conditions: Clostridium; for MIC90: read-out: Minimal Inhibitory Concentration 90% (MIC90), 14 isolates
[11] = system: Prevotella heparinolytica; format: cell-based; conditions: 16 isolates; for MIC90 / MIC50: Prevotella heparinolytica; for MIC90: read-out: Minimal Inhibitory Concentration 90% (MIC90); for MIC50: read-out: Minimal Inhibitory Concentration 50% (MIC50)
Porphyromonas canoris = format: cell-based; conditions: 10 isolates; for MIC50 / MIC90: Porphyromonas canoris; for MIC50: read-out: Minimal Inhibitory Concentration 50% (MIC50); for MIC90: read-out: Minimal Inhibitory Concentration 90% (MIC90)
[12] = system: Prevotella buccae-oris group; format: cell-based; conditions: 22 isolates; for MIC90 / MIC50: Prevotella; for MIC90: read-out: Minimal Inhibitory Concentration 90% (MIC90); for MIC50: read-out: Minimal Inhibitory Concentration 50% (MIC50)
Bacteroides gracilis = format: cell-based, Bacteroides gracilis (Campylobacter gracilis); conditions: 11 isolates; for MIC90 / MIC50: Campylobacter gracilis; for MIC90: read-out: Minimal Inhibitory Concentration 90% (MIC90); for MIC50: read-out: Minimal Inhibitory Concentration 50% (MIC50)
[13] = system: Peptostreptococcus micros; format: cell-based; conditions: 12 isolates; for MIC50 / MIC90: Parvimonas micra; for MIC50: read-out: Minimal Inhibitory Concentration 50% (MIC50); for MIC90: read-out: Minimal Inhibitory Concentration 90% (MIC90)
[14] = system: Prevotella melaninogenica; format: cell-based; conditions: 12 isolates; for MIC90 / MIC50: Prevotella melaninogenica; for MIC90: read-out: Minimal Inhibitory Concentration 90% (MIC90); for MIC50: read-out: Minimal Inhibitory Concentration 50% (MIC50)
[15] = system: Prevotella denticola/loeschii group; format: cell-based; conditions: 6 isolates; for MIC50: Prevotella denticola, read-out: Minimal Inhibitory Concentration 50% (MIC50)
Prevotella intermedia = format: cell-based; conditions: Prevotella intermedia, 11 isolates; for MIC90: read-out: Minimal Inhibitory Concentration 90% (MIC90); for MIC50: read-out: Minimal Inhibitory Concentration 50% (MIC50)

CC[C@H]1OC(=O)[C@H](C)[C@@H](O[C@H]2C[C@@](C)(OC)[C@@H](O)[C@H](C)O2)[C@H](C)[C@@H](O[C@@H]2O[C@H](C)C[C@H](N(C)C)[C@H]2O)[C@](C)(OC)C[C@@H](C)C(=O)[C@H](C)[C@@H](O)[C@]1(C)O [Clarithromycin]
0.03 to 2 µg/mL: Minimal Inhibitory Concentration Range [15]
2 µg/mL: MIC90 (Bacteroides ureolyticus) | MIC50 [5] | MIC50 [6]
1 µg/mL: MIC90 (Bacteroides gracilis) | MIC50 (Bacteroides gracilis) | MIC90 [14]
0.06 to 4 µg/mL: Minimal Inhibitory Concentration Range [14]
8 to 32 µg/mL: Minimal Inhibitory Concentration Range [2]
≤ 0.015 µg/mL: MIC90 [8] | MIC50 [8] | MIC50 (Actinomyces israelii) | MIC50 (Prevotella intermedia)
4 to 32 µg/mL: Minimal Inhibitory Concentration Range (Bilophila wadsworthia)
0.06 to 0.125 µg/mL: Minimal Inhibitory Concentration Range (Porphyromonas macaccae) | Minimal Inhibitory Concentration Range (Porphyromonas gingivalis) | Minimal Inhibitory Concentration Range (Porphyromonas spp.) | Minimal Inhibitory Concentration Range [11] | Minimal Inhibitory Concentration Range (Porphyromonas canoris)
0.6 µg/mL: Minimal Inhibitory Concentration Range [13]
16 µg/mL: MIC90 [1] | MIC50 (Bilophila wadsworthia) | MIC50 (Veillonella spp.)
> 32 µg/mL: MIC50 (Fusobacterium varium) | MIC90 (Fusobacterium varium) | MIC50 [3] | MIC90 [3] | MIC90 (Clostridium inocuum) | MIC50 (Clostridium inocuum) | MIC90 [4] | MIC90 [5] | MIC90 (Clostridium ramosum) | MIC90 [6] | MIC50 [7] | MIC90 [9] | MIC90 (Fusobacterium russii) | MIC90 (Veillonella spp.) | MIC90 (Clostridium dfficile)
32 µg/mL: MIC50 [2] | MIC90 (Bilophila wadsworthia) | MIC90 [10]
0.125 µg/mL: MIC50 (Porphyromonas macaccae) | MIC90 (Porphyromonas macaccae) | Minimal Inhibitory Concentration Range (Bacteroides tectum) | MIC90 (Bacteroides tectum) | MIC50 (Bacteroides tectum) | MIC50 (Prevotella bivia) | MIC90 (Porphyromonas gingivalis) | MIC90 (Porphyromonas spp.) | MIC90 [11] | MIC50 [11] | MIC90 (Porphyromonas canoris) | MIC50 [12] | MIC50 [14] | MIC90 (Prevotella intermedia)
0.06 µg/mL: MIC50 [9] | MIC50 (Porphyromonas gingivalis) | MIC50 (Porphyromonas spp.) | MIC50 (Porphyromonas canoris) | MIC50 [15]
0.25 to 2 µg/mL: Minimal Inhibitory Concentration Range (Bacteroides gracilis)
0.06 to 1 µg/mL: Minimal Inhibitory Concentration Range [12]
4 µg/mL: MIC50 [1] | MIC50 [4] | MIC50 (Fusobacterium russii)
0.5 µg/mL: MIC50 (Bacteroides ureolyticus) | MIC50 (Clostridium ramosum) | MIC50 (Clostridium dfficile; read-out: Minimal Inhibitory Concentration 50% (MIC50)) | MIC50 [13] | MIC90 [13]
8 µg/mL: MIC50 [10]
0.25 µg/mL: MIC90 (Prevotella bivia) | MIC90 [12]
2 to 32 µg/mL: Minimal Inhibitory Concentration Range [1]
0.125 to 4 µg/mL: Minimal Inhibitory Concentration Range (Bacteroides ureolyticus)

CCC[C@@H]1C[C@@H](C(=O)N[C@@H]([C@H]2O[C@H](SC)[C@H](O)[C@@H](O)[C@H]2O)[C@H](C)Cl)N(C)C1 [Clindamycin]
8 µg/mL: MIC90 [3]
≤ 0.015 µg/mL: MIC50 (Porphyromonas macaccae) | MIC90 (Porphyromonas macaccae) | MIC90 (Bacteroides tectum) | MIC50 (Bacteroides tectum) | MIC50 (Prevotella bivia) | MIC50 [9] | MIC50 (Porphyromonas gingivalis) | MIC90 (Porphyromonas gingivalis) | MIC50 (Porphyromonas spp.) | MIC90 (Porphyromonas spp.) | MIC90 [11] | MIC50 [11] | MIC50 (Porphyromonas canoris) | MIC90 (Porphyromonas canoris) | MIC50 [12] | MIC50 [14] | MIC50 [15] | MIC90 (Prevotella intermedia) | MIC50 (Prevotella intermedia)
0.25 µg/mL: MIC90 (Bacteroides ureolyticus) | MIC90 [8] | MIC50 (Bacteroides gracilis)
> 32 µg/mL: MIC90 [1] | MIC90 (Clostridium inocuum) | MIC90 [5] | MIC90 [9] | MIC90 (Clostridium dfficile)
2 µg/mL: MIC90 (Bilophila wadsworthia) | MIC90 [4] | MIC50 (Clostridium ramosum) | MIC90 (Clostridium ramosum) | MIC90 [6] | MIC90 (Veillonella spp.) | MIC90 (Bacteroides gracilis)
0.25 to 4 µg/mL: Minimal Inhibitory Concentration Range (Clostridium ramosum)
0.5 µg/mL: MIC50 (Bilophila wadsworthia) | MIC50 (Clostridium inocuum) | MIC50 [6] | MIC90 [14]
1 µg/mL: MIC50 [3] | MIC50 [7]
16 µg/mL: MIC90 (Fusobacterium varium)
0.06 to 2 µg/mL: Minimal Inhibitory Concentration Range [6]
0.06 to 0.25 µg/mL: Minimal Inhibitory Concentration Range (Actinomyces israelii)
0.06 µg/mL: MIC50 (Bacteroides ureolyticus) | MIC50 [4] | MIC50 [5] | MIC50 (Actinomyces israelii) | MIC50 [10] | MIC90 (Fusobacterium russii) | MIC50 (Veillonella spp.)
0.03 µg/mL: MIC90 (Prevotella bivia) | MIC50 (Fusobacterium russii) | MIC90 [12]
4 µg/mL: MIC50 (Fusobacterium varium)
0.030 to 32 µg/mL: Minimal Inhibitory Concentration Range [7]
0.06 to 16 µg/mL: Minimal Inhibitory Concentration Range (Fusobacterium varium)
0.25 to 2 µg/mL: Minimal Inhibitory Concentration Range (Bilophila wadsworthia)
0.125 µg/mL: MIC50 [8] | MIC90 [10] | MIC50 [13] | MIC90 [13]
32 µg/mL: MIC50 [1] | Minimal Inhibitory Concentration Range [2] | MIC50 [2]
0.06 to 0.125 µg/mL: Minimal Inhibitory Concentration Range [13]
0.03 to 0.5 µg/mL: Minimal Inhibitory Concentration Range (Bacteroides ureolyticus)
0.03 to 8 µg/mL: Minimal Inhibitory Concentration Range (Bacteroides gracilis)
0.06 to 8 µg/mL: Minimal Inhibitory Concentration Range [3]
